# Experimental data as given in US20080221163A1, “Selective Estrogen Receptor Modulators” (priority 2005, published 2008).
# Structures can show the parent of a compound that is named as a salt. Where two headings read alike, the source gives them in different places.
# What was measured:
# [1] = tested on: Ishikawa human endometrial tumor cells; test: Ishikawa Cell Proliferation Assay (alkaline phosphatase readout; agonist and antagonist modes); assay type: cell-based; settings: for stimulation compared with tamoxifen: compound alone
# Protocol: Ishikawa Cell Proliferation Assay: This assay measures cell proliferation (using an alkaline phosphatase readout) in both an agonist mode in the presence of a compound of the present invention alone, and in an antagonist mode in which the ability of a compound of the present invention to block estradiol stimulation of growth is measured.
# Ishikawa human endometrial tumor cells are maintained in MEM (minimum essential medium, with Earle's salts and L-Glutamine, Gibco BRL, Gaithersburg, Md.), supplemented with 10% fetal bovine serum (FBS) (V/V), (Gibco BRL). One day prior to assay, growth media is changed to assay medium, DMEM/F-12 (3:1) (Dulbecco's Modified Eagle Medium: Nutrient Mixture F-12, 3:1 Mixture, phenol red-free, Gibco BRL) supplemented with 5% dextran coated charcoal stripped fetal bovine serum (DCC-FBS) (Hyclone, Logen, Utah), L-Glutamine (2 mM), MEM sodium pyruvate (1 mM), HEPES (N-[2-hydroxyethyl]piperazine-N′-[2-ethanesulfonic acid] 2 mM) all from Gibco BRL). After an overnight incubation, Ishikawa cells are rinsed with Dulbecco's Phosphate Buffered Saline (1×) (D-PBS) without Ca^+2 and Mg^+2 (Gibco BRL), and trypsinized by a 3 minute incubation with 0.25% Trypsin/EDTA, phenol red-free (Gibco BRL). Cells are resuspended in assay medium and adjusted to 250,000 cells/mL. Approximately 25,000 cells in a 100 μl media are added to flat-bottom 96 wells microculture plates (Costar 3596) and incubated at 37° C. in a 5% CO2 humidified incubator for 24 hours. The next day, serial dilutions of compounds are prepared in assay medium (at 6 times the final concentration in the assay). The assay is run in dual mode, agonist and antagonist modes.
# For the agonist mode, plates receive 25 μl/well of assay medium followed by 25 μl/well of a diluted compound of the present invention (at 6× the final concentrations). For the antagonist mode, plates receive 25 μl/well of 6 nM E2 (β-Estradiol, Sigma, St. Louis, Mo.) followed by 25 μl/well of a diluted compound of the present invention (at 6× the final concentrations). After an additional 48-hour incubation at 37° C. in a 5% CO2 humidified incubator, media is aspirated from wells and 100 μl fresh assay medium is added to each microculture. Serial dilutions of compounds are prepared and added to the cells as described above. After an additional 72 hour incubation at 37° C. in a 5% CO2 humidified incubator, the assay is quenched by removing media and rinsing plates twice in Dulbecco's Phosphate Buffered Saline (1×) (D-PBS) (Gibco BRL). The plates are dried for 5 minutes and frozen at −70° C. for at least 1 hour. The plates are then removed from the freezer and allowed to thaw at room temperature. To each well, 100 μl of 1-Step™ PNPP (Pierce Chemical Company, Rockford, Ill.) is added. After a 20-minute incubation, plates are read on a spectophotometer at 405 nm.
# The data is fitted to a linear interpolation to derive EC50 (for agonist mode) or IC50 (for antagonist mode) values. For the antagonist mode, a % efficacy for each compound is calculated versus E2 (1 nM) alone. For the agonist mode, a % efficacy for each compound is calculated versus the response to tamoxifen.
# [2] = tested on: estrogen-induced response; test: 3-Day Rat Uterus Antagonist Assay; assay type: in vivo; settings: immature female rats, oral, 3 days, with E2 0.1 mg/kg; for inhibition of the estrogen-induced response (uterine weight/body weight ratio): administered at 0.01, 0.1 and 1.0 mg/kg
# Excerpt: 3-Day Rat Uterus Antagonist Assay: This model for uterine antagonism utilizes immature (3 week old) female rats that are highly sensitive to estrogenic stimulation of the uterus given that their circulating estrogen levels are prepubertal. The uteri from immature rats are fully responsive to exogenous estrogen, yet are quiescent in the absence of exogenous estrogen. Administration of exogenous estrogen to immature rats produces a reliable elevation of uterine weight, which can be used to study uterine antagonist effects. The rats are treated with both estradiol and 4 different concentrations of a compound of the present invention for 3 days and then uterine wet weights are measured.
# Nineteen to twenty-one day old (or 45-50 g) female rats are orally treated with E2 (0.1 mg/kg, a maximal stimulatory estrogenic stimulus for reliably increasing uterine weight) and 10, 1.0, 0.1 and 0.01 mg/kg test compound for 3 days, 6 rats per group. Test compounds are dissolved in 20% β-hydroxycyclodextrin and administered by oral gavage in a volume of 0.2 mL daily (15 min. prior to the ethynyl estradiol gavage). A vehicle control, E2 alone and E2+raloxifene are also done as controls. The animals are fasted overnight following the final dose. On the following morning, the animals are weighed, then euthanized (by carbon dioxide asphyxiation) and the uteri rapidly collected (via a mid-line ventral incision) and weighed.
# Uterine weight/body weight ratios (UWR) are calculated for each animal. The percent inhibition of the estrogen-induced response is then calculated by the following formula: percent inhibition=100×(UWRestrogen−UWRtest compound/UWRestrogen−UWRcontrol). ED50 values are derived from a semi-log regression analysis of the linear aspect of the dose response curve. Both the UWR data and the percent inhibition data are statistically analyzed by one way analysis of variance (ANOVA) with post-hoc testing by Fisher's PLSD when indicated by a p≦0.05. Statistical analyses are performed using the Statview® 4.0 software package.
# [3] = 10-Day Rat Hormone (Ovarian Stimulation) Screen; assay type: in vivo; settings: mature F344 female rats, oral gavage 10 days, serum about 2 hours after 10th dose, RIA
# Protocol: 10-Day Rat Hormone (Ovarian Stimulation) Screen: An initial, first screen for ovarian toxicity is conducted using a 10-day rat hormone study to measure estradiol and luteinizing hormone levels after compound administration. This screen is conducted by administering compound by oral gavage for 10 days to mature (9-10 week old) F344 female rats. Trunk blood is collected by rapid decapitation for evaluation of LH and estradiol levels approximately 2 hours after the 10th dose. Serum, obtained by centrifugation, is removed and stored frozen below −60° C. until assayed. Serum levels of LH and estradiol are measured using radioimmunoassay (RIA) methods.
# Rat LH primary antibody and reference preparations (rat LH:RP-3) are obtained from Dr. A. F. Parlow, Director, Pituitary Hormones and Antisera Center, Harbor-UCLA Medical Center, Torrance, Calif. The LH assay upper limits of detection are 30 ng/mL and the lower limits of detection are 0.1 ng/mL for the 100 μl samples.
# E2 Clinical Assays. DiaSorin s.r.l., Saluggia (Vercelli), Italy. The upper limit of detection is 1000 pg/mL and the lower limit of detection is 5 pg/mL.
smiles,measurement,setting,value
CSc1ccc2c(c1)OC(c1ccc(OCCN3CCCCC3)cc1)c1c-2ccc2cc(O)ccc12.Cl (centres unmarked) [Example 1],stimulation compared with tamoxifen,[1]; agonist mode,less stimulatory than tamoxifen
same,% antagonism,[2],69%
same,ED50,[2],0.22 mpk
same,inhibition of the estrogen-induced response (uterine weight/body weight ratio),[2],inhibit the estrogen-induced response
"CNS(=O)(=O)c1ccc2c(c1)-c1ccc3cc(O)ccc3c1C(c1ccc(OCCN3CCCCC3)cc1)O2.Cl (centres unmarked) [Example 9, 2-Hydroxy-5-[4-(2-piperidin-1-yl-ethoxy)-phenyl]-5H-6-oxa-chrysen-9-sulfonic acid methylamide hydrochloride salt]",stimulation compared with tamoxifen,[1]; agonist mode,less stimulatory than tamoxifen
"CSc1ccc2c(c1)OC(c1ccc(OCCN3CCCCC3)cc1)c1c-2ccc2cc(O)ccc12.Cl (centres unmarked) [Example 1, 8-Methylsulfanyl-5-[4-(2-piperidin-1-yl-ethoxy)-phenyl-5H-6-oxa-chrysen-2-ol hydrochloride]",Emax,"[1]; Homo sapiens, Ishikawa, agonist mode, % efficacy versus the response to tamoxifen, read-out: relative % efficacy",26%
same,IC50,"[1]; Homo sapiens, Ishikawa, antagonist mode, block of estradiol stimulation",45 nM
same,Emax,"[1]; Homo sapiens, Ishikawa, antagonist mode, versus E2 (1 nM) alone, read-out: % efficacy",92%
"CNS(=O)(=O)c1ccc2c(c1)OC(c1ccc(OCCN3CCCCC3)cc1)c1c-2ccc2cc(O)ccc12.Cl (centres unmarked) [Example 5, 8-N-methyl sulfonamide-5-[4-(2-piperidin-1-yl-ethoxy)-phenyl]-5H-6-oxacbrysen-2-ol]",stimulation compared with tamoxifen,[1]; agonist mode,less stimulatory than tamoxifen
"CS(=O)(=O)c1ccc2c(c1)OC(c1ccc(OCCN3CCCCC3)cc1)c1c-2ccc2cc(O)ccc12 (racemic) [Example 3, 8-Methanesulfonyl-5-[4-(2-piperidin-1-yl-ethoxy)-phenyl]-5H-6-oxa-chrysen-2-ol, mono-Hydrochloride salt]",circulating LH levels,[3],did not significantly elevate
same,circulating estradiol levels,[3],did not significantly elevate
same,stimulation compared with tamoxifen,[1]; agonist mode,less stimulatory than tamoxifen
same,% antagonism,[2],81%
same,ED50,[2],0.17 mpk
same,inhibition of the estrogen-induced response (uterine weight/body weight ratio),[2],inhibit the estrogen-induced response
"CCS(=O)(=O)c1ccc2c(c1)OC(c1ccc(OCCN3CCCCC3)cc1)c1c-2ccc2cc(O)ccc12.Cl (centres unmarked) [Example 7, 8-Ethanesulfonyl-5-[4-(2-piperidin-1-yl-ethoxy)-phenyl]-5H-6-oxa-chrysen-2-ol hydrochloride salt]",stimulation compared with tamoxifen,[1]; agonist mode,less stimulatory than tamoxifen
"CS(=O)(=O)c1ccc2c(c1)-c1ccc3cc(O)ccc3c1C(c1ccc(OCCN3CCCCC3)cc1)O2.Cl (centres unmarked) [Example 10, 9-Methanesulfonyl-5-[4-(2-piperidin-1-yl-ethoxy)-phenyl]-5H-6-oxa-chrysen-2-ol hydrochloride salt]",stimulation compared with tamoxifen,[1]; agonist mode,less stimulatory than tamoxifen
